Measured values from patent US4124710A, “Acetamidoxime derivatives and use thereof” (priority 1976, dated 1978).
Where a name gives a salt, the structure may show the parent alone.

Columns and labels:
[1] = test system: male rats in which chronic renal hypertension had been induced; assay: Fall in arterial pressure in rats rendered hypertensive by the GROLLMAN method (chronic renal hypertension); assay type: in vivo, rat; settings: intragastric; for Fall in A.P.: 25 mg/kg, measured before and 1-6 hours after administration
Protocol: The first test was carried out on male rats weighing about 120g in which chronic renal hypertension had been induced by the Grollman technique [Proc. Soc. exp.
According to this technique, the animals are anaesthetized with ether and one kidney is displaced from its site without being detached from the body, the suprarenal gland having been first liberated from the kidney but otherwise left intact. The kidney is then bound with twine in the form of a figure eight, just tightly enough to alter slightly the ellipsoid shape of the organ. Ten days later, the other kidney is completely removed together with its suprarenal gland.
Arterial pressure was measured immediately before and 1,2,3,4,5 and 6 hours after administration.

[2] = test system: experimentally induced hypertension; settings: rat, in vivo; cited from earlier work
[3] = test system: rats with saline hypertension; assay: Saline hypertension (technique of DAHL, KNUDSEN, HEINE and LEITL); assay type: in vivo, rat; settings: intragastric
Protocol: (§1) All of these tests were performeed on rats which were in a state of hypertension. Each test was divided into two series. In the first series, one single dose of the product under study was administered by intragastric route to each animal and the arterial pressure of the latter was measured every hour for six hours after administration. In the second series the product under study was given by the same route every day for eleven consecutive days and arterial pressure was measured daily throughout this period. The amount of product administered varied from one animal to another.
This test was performed in accordance with the technique of DAHL, KNUDSEN, HEINE and LEITL.
Male rats weighing 55 ± 5g were fed on food containing 8% of NaCl but which was otherwise normal.
After six weeks of this diet, arterial pressure had risen to about 180 mm.Hg.

Mouse = assay: Acute toxicity in mice; assay type: in vivo; settings: 12 days observation
Protocol: (§2) Finally, acute toxicity trials were carried out on rats and mice which were kept under observation for 12 days following one single administration.

[4] = test system: rats with hypertension of endocrine origin; assay: Hypertension of endocrine origin (DOCA; technique of STANTON and WHITE); assay type: in vivo, rat; settings: intragastric
Protocol: as §1
(2) Hypertension of endocrine origin
This test was performed in accordance with the technique of STANTON and WHITE (Arch. Int. Pharmacodyn. 154, 351, 1965).
Female rats weighing 90 ± 10g were anaesthetized with ether and hypertension was produced by ablation of one kidney and the corresponding adrenal gland, after which a dose of 50 mg/kg of desoxycorticosterone acetate (DOCA) was administered subcutaneously five days a week over a period of four weeks. Throughout this period the drinking-water given to the rats contained 1% of NaCl. This was replaced by ordinary tap-water when administration of the desoxycorticosterone ceased.
Under these circumstances, arterial pressure rose to about 200 mm.Hg.

[5] = test system: experimentally induced hypertension; assay: Experimentally induced hypertension, general statements on anti-hypertensive activity; settings: rat, in vivo
Protocol: as §1

[6] = test system: rats with genetic hypertension; assay: Genetic hypertension (technique of OKAMOTO and AOKI); assay type: in vivo, rat; settings: for Maximum fall in A.P.: intragastric
Protocol: as §1
This test was performed in accordance with the technique of OKAMOTO and AOKI (Jap. Circul. J., 27, 282, 1963), using male rats belonging to a race which has been specially bred to produce animals having high blood pressure.

[7] = test system: rats with neurogenic hypertension; assay: Neurogenic hypertension (technique of KRIEGER and IMBS); assay type: in vivo, rat; settings: intragastric
Protocol: as §1
(4) Neurogenic hypertension
This test was performed in accordance with the technique of KRIEGER and IMBS (Circul. Res. 15, 511, 1964 and C.R. Soc. Biol. 162, 778, 1968).
Male rats weighing from 200 to 250g were anaesthetized with ether and 0.5mg of atropine sulphate was administered to them intraperitoneally.
The rats were fixed in a supine position and an incision was made in the front of the neck to expose the neuromuscular bundle comprising the sumpathetic and vagus nerve and the common carotid arteries.
The vagus nerves and the carotid arteries were then carefully isolated while one centimeter was cut out of the sympathetic nerves. […] The area in which the carotids divide was exposed by pulling aside the appropriate neck muscles (sternocleidomastoideus and omohyoideus). The vessels thus liberated were painted with 10% phenol in ethanol. In this way, complete sympathetic denervation was obtained.
A marked rise in arterial pressure was obtained after 5 to 8 days.

male albino rats = assay: Volumetric urinary excretion (technique of LIPSCHITZ et al.); assay type: in vivo, rat; settings: intragastric, 6 hours, % of volume of saline administered
Protocol: 1 -- Volumetric urinary excretion
This test was performed according to the technique of LIPSCHITZ et al. (J. Pharmacol. exp. Therap. 79, 97, 1943), by using groups of 20 male albino rats weighing from 150 to 200g which had been deprived of food and drink for 18 hours.
The substance to be tested was given by intragastric route immediately after the intragastric administration of 50 ml/kg of a 9°/°° solution of NaCl.
A control group also of 20 rats only received the saline solution. The total amount of urine excreted during the 6 hours following administration was collected and measured.

albino male rats = assay: Ionic ratio in urinary excretion (technique of AMBROSILI et al.); assay type: in vivo, rat; settings: for Na^+ /K^+ Ratio / K^+ excretion / Na^+ excretion / Urinary excretion: intragastric, 4 hours; for Na^+ /K^+ Ratio: control 1; for K^+ excretion: control 18.5; for Na^+ excretion: control 27.3; for Urinary excretion: control 40
Protocol: 2 -- Ionic ratio in urinary excretion
This test was performed according to the technique of AMBROSILI et al. (Minerva Nepol. 11,56, 1964).
The substance to be tested was given by intragastric route immediately after the intragastric administration of 50 ml/kg of distilled water to groups of 20 albino male rats weighing 140 { 10g which had been fasting for 18 hours.
A control group, also comprising 20 animals, only received the distilled water.
The total amount of urine excreted during the 4 hours following administration was collected and measured and the total Na^+ and K^+ ion excretion values determined.
These values were then converted to millieequivalents per liter (mEq/l.) in order to obtain the correct Na^+ and K^+ ion excretion figures independently of the increase in the amount of urine.
The ionic ratio was obtained according to the following formula: [formula]

[8] = test system: hypertensive effect of acetylcholine in dog; assay: Ganglioplegic activity: hypertensive effect of acetylcholine in anaesthetized atropinized dog
[9] = test system: nictitating membrane of an anaesthetized cat; assay: Ganglioplegic activity: contractions of the nictitating membrane of anaesthetized cat; assay type: in vivo; settings: two intravenous doses of 5 mg/kg
Protocol: (1) The arterial pressure and the tonus of the nictitating membrane of an anaesthetized cat was first noted, after which the contractile reaction of the membrane to an intravenous injection of adrenaline and to electric stimulation of the preganglionic fibre of the cervical sympathetic nerve was tested.

Rat = assay: Acute toxicity in rats; assay type: in vivo; settings: 12 days observation
Protocol: as §2

Structure (SMILES): CCCCN(CCCC)CCNC(Cc1c(CC)oc2ccccc12)=NO [2-(2-Ethyl-3-benzofuranyl)-N-(2-di-n-butylamine-ethyl)-acetamidoxime]
- Fall in A.P. [1]: 27 mm.Hg

Structure (SMILES): CCc1oc2ccc(Cl)cc2c1CC(=NO)NCCN1CCOCC1 [2-(2-Ethyl-5-chloro-3-benzofuranyl)-N-(2-morpholino-ethyl)-acetamidoxime]
- Fall in A.P. [1]: 21 mm.Hg

Structure (SMILES): Cc1oc2ccccc2c1CC(=NO)NCCN1CCOCC1 [2-(2-Methyl-3-benzofuranyl)-N-(2-morpholino-ethyl)-acetamidoxime]
- Fall in A.P. [1]: 25 mm.Hg

Structure (SMILES): CCCN1CCN(C(=N)Cc2c(CC)oc3ccccc23)CC1 [2-(2-ethyl-3-benzofuranyl)-N,N-(3-n-propyl-3-aza-pentamethylene)-acetamidine dihydrochloride, reference compound]
- fall in arterial pressure ([1]; 50 mg/kg): 14 mm.Hg
- fall in arterial pressure ([1]; 200 mg/kg): 24 mm.Hg
- activity in the treatment of experimentally induced hypertension [2]: pharmacologically active

Structure (SMILES): CCc1oc2ccccc2c1CC(=NO)NCCN1CCOCC1 [L 9552, 2-(2-ethyl-3-benzofuranyl)-N-(2-morpholino-ethyl)-acetamidoxime]
- Maximum fall in A.P. ([3]; daily doses (11 days) 10 mg/kg): 13 mm.Hg
- Maximum fall in A.P. ([3]; daily doses (11 days) 25 mg/kg): 26 mm.Hg
- Maximum fall in A.P. ([3]; daily doses (11 days) 50 mg/kg): 53 mm.Hg
- Maximum fall in A.P. ([3]; single dose 10 mg/kg): 14 mm.Hg
- Maximum fall in A.P. ([3]; single dose 25 mg/kg): 27 mm.Hg
- Maximum fall in A.P. ([3]; single dose 50 mg/kg): 54 mm.Hg
- LD0 (Mouse; intragastric): 250 mg/kg
- LD95 (Mouse; intragastric): 1,250 mg/kg
- LD0 (Mouse; intraperitoneal): 30 mg/kg
- LD95 (Mouse; intraperitoneal): 110 mg/kg
- Fall in A.P. [1]: 36 mm.Hg
- Maximum fall in A.P. ([1]; daily doses (11 days) 10 mg/kg): 18 mm.Hg
- Maximum fall in A.P. ([1]; daily doses (11 days) 25 mg/kg): 32 mm.Hg
- Maximum fall in A.P. ([1]; daily doses (11 days) 50 mg/kg): 47 mm.Hg
- Maximum fall in A.P. ([1]; single dose 10 mg/kg): 14 mm.Hg
- Maximum fall in A.P. ([1]; single dose 25 mg/kg): 36 mm.Hg
- Maximum fall in A.P. ([1]; single dose 50 mg/kg): 55 mm.Hg
- Maximum fall in A.P. ([4]; daily doses (11 days) 25 mg/kg): 15 mm.Hg
- Maximum fall in A.P. ([4]; daily doses (11 days) 50 mg/kg): 30 mm.Hg
- Maximum fall in A.P. ([4]; daily doses (11 days) 100 mg/kg): 49 mm.Hg
- Maximum fall in A.P. ([4]; single dose 25 mg/kg): 18 mm.Hg
- Maximum fall in A.P. ([4]; single dose 50 mg/kg): 26 mm.Hg
- Maximum fall in A.P. ([4]; single dose 100 mg/kg): 45 mm.Hg
- activity in the five types of experimentally induced hypertension [5]: active
- Maximum fall in A.P. ([6]; daily doses (11 days) 5 mg/kg): 0 mm.Hg
- Maximum fall in A.P. ([6]; daily doses (11 days) 10 mg/kg): 26 mm.Hg
- Maximum fall in A.P. ([6]; daily doses (11 days) 20 mg/kg): 47 mm.Hg
- activity in genetic hypertension ([6]; rat, in vivo): especially active
- Maximum fall in A.P. ([6]; single dose 5 mg/kg): 16 mm.Hg
- Maximum fall in A.P. ([6]; single dose 10 mg/kg): 35 mm.Hg
- Maximum fall in A.P. ([6]; single dose 20 mg/kg): 52 mm.Hg
- Maximum fall in A.P. ([7]; daily doses (11 days) 10 mg/kg): 17 mm.Hg
- Maximum fall in A.P. ([7]; daily doses (11 days) 25 mg/kg): 35 mm.Hg
- Maximum fall in A.P. ([7]; single dose 10 mg/kg): 18 mm.Hg
- Maximum fall in A.P. ([7]; single dose 25 mg/kg): 37 mm.Hg
- Maximum fall in A.P. ([7]; single dose 50 mg/kg): 56 mm.Hg
- Urinary excretion (male albino rats; 10 mg/kg): 84%
- Urinary excretion (male albino rats; 20 mg/kg): 102%
- Urinary excretion (male albino rats; 50 mg/kg): 118%
- Urinary excretion (male albino rats; 100 mg/kg): 138%
- Urinary excretion (male albino rats; 200 mg/kg): 165%
- Na^+ /K^+ Ratio (albino male rats; 10 mg/kg): 1.09
- K^+ excretion (albino male rats; 10 mg/kg): 15.3 mEq/l.
- Na^+ excretion (albino male rats; 10 mg/kg): 24.8 mEq/l.
- Urinary excretion (albino male rats; 10 mg/kg): 55%
- Na^+ /K^+ Ratio (albino male rats; 20 mg/kg): 1.66
- K^+ excretion (albino male rats; 20 mg/kg): 17.5 mEq/l.
- Na^+ excretion (albino male rats; 20 mg/kg): 43.0 mEq/l.
- Urinary excretion (albino male rats; 20 mg/kg): 80%
- Na^+ /K^+ Ratio (albino male rats; 50 mg/kg): 2.50
- K^+ excretion (albino male rats; 50 mg/kg): 15.0 mEq/l.
- Na^+ excretion (albino male rats; 50 mg/kg): 55.6 mEq/l.
- Urinary excretion (albino male rats; 50 mg/kg): 95%
- Na^+ /K^+ Ratio (albino male rats; 100 mg/kg): 3.37
- K^+ excretion (albino male rats; 100 mg/kg): 14.3 mEq/l.
- Na^+ excretion (albino male rats; 100 mg/kg): 71.3 mEq/l.
- Urinary excretion (albino male rats; 100 mg/kg): 137%
- Na^+ /K^+ Ratio (albino male rats; 200 mg/kg): 3.34
- K^+ excretion (albino male rats; 200 mg/kg): 15.8 mEq/l.
- Na^+ excretion (albino male rats; 200 mg/kg): 78.0 mEq/l.
- Urinary excretion (albino male rats; 200 mg/kg): 124%
- sodium-excretion index (albino male rats; rat, in vivo): very favourable
- effect on the hypertensive effect of acetylcholine ([8]; 5 mg/kg intravenous, 1 mg/kg acetylcholine): did not alter the hypertensive effect
- effect on intensity of contractions of the nictitating membrane (adrenaline, electric stimulation) [9]: did not modify the intensity of the contractions of the membrane
- LD0 (Rat; intragastric): 1,100 mg/kg
- LD95 (Rat; intragastric): 2,500 mg/kg
- LD0 (Rat; intraperitoneal): 80 mg/kg
- LD95 (Rat; intraperitoneal): 350 mg/kg

Structure (SMILES): NS(=O)(=O)c1cc2c(cc1Cl)NCNS2(=O)=O [hydrochlorothiazide, reference compound]
- activity in this test ([1]; 200 mg/kg): inactive

Structure (SMILES): C[N+]1(CC(=O)c2ccc(-c3ccccc3)cc2)[C@@H]2CC[C@H]1C[C@@H](OC(=O)[C@H](CO)c1ccccc1)C2 (stereo partly shown) [phenthonium, reference compound]
- effect on the hypertensive effect of acetylcholine ([8]; dose not stated, ganglioplegic substance): annulled the hypertensive effect of acetylcholine
